Where two headings read alike, the source gives them in different places.
Key:
[1] = test system: TNFα release from THP-1 cells; experiment: Inhibition of TNFα release from LPS-stimulated THP-1 cells, ELISA; format: cell-based; conditions: Homo sapiens, read-out: [CELL] THP-1, IC50, TNF ALPHA, ELISA
From the text: Compounds of the invention are screened for the ability to inhibit TNFα and IL-1β release from THP-1 cells stimulated with lipopolysaccharide (LPS) in vitro. The ability of compounds to inhibit TNFα and IL-1β release in this in vitro assay is correlated with the inhibition of p38 activity and TNFα and IL-1β expression in vivo, and is therefore an indicator of potential in vivo therapeutic activity (Lee J. C. et al, Ann. N.Y. Acad. Sci. 696: 149-170, 1993 and Nature, 372: 739-746, 1994).
Materials: THP-1 cells from ATCC (TIB202) are maintained at 37° C., 5% CO2 in RPMI 1640 media (available from MediaTech, Herndon, Va.) containing 4.5 g/L glucose, supplemented with 10% fetal bovine serum, 1% penicillin/streptomycin and 50 μM β-mercaptoethanol.
Methods: Test compounds are initially dissolved in RPMI media with 1% DMSO (v/v). Compounds are then serially diluted in RPMI media for all subsequent dilutions. The assay is performed under sterile conditions. THP-1 cells at a culture density of 6-8×10^5 cells/ml are collected and resuspended in the RPMI media at 10^6 cells/ml containing 10% fetal bovine serum, no serum or 1% human serum albumin (HSA). 100 μl of resuspended cells are added to each well, which contain 100 μl of a test compound. Test compounds are prepared at twice the final concentration. Final DMSO concentration is no more than 0.5% (v/v). Cells are preincubated with compound for 30 minutes at 37° C., 5% CO2 prior to stimulation with lipopolysaccharide (LPS) (Sigma L-2880, 4 mg/ml stock in PBS). The final LPS concentration in each well is 10 or 30 μg/ml for TNFα and IL-1β release, respectively. Unstimulated control cell suspensions receive PBS vehicle only. Cell mixtures are incubated for 18 or 48 hours for TNFα and IL-1β prelease, respectively. 150 μl of supernatants are taken and transferred to a fresh plate and stored at −20° C. until further analysis. TNFα and IL-1β levels are measured using ELISA kits from Biosource (Catalog no. KHC3012 for TNFα; KAC1192 for IL-1β). A SpectraMAX 250 is used as the plate reader. Analysis is performed by non-linear regression to generate a dose response curve. The calculated IC50 value is the concentration of the test compound that causes a 50% decrease in TNFα or IL-1β levels.

[2] = target: T1, p38α (Homo sapiens, UniProt Q16539); experiment: p38 MAP Kinase assay: inhibition of ATF2 phosphorylation, ELISA; format: biochemical; conditions: for inhibition at 10 µM: substrate ATF2, read-out: [ENZ] P38 ALPHA, PCT INH, ELISA (10 uM;ATF2) (Percent); for IC50: ATF2 phosphorylation, read-out: [ENZ] P38 ALPHA, IC50, ELISA
T1 construct: p38 MAP Kinases are recombinant human full-length proteins with an amino-terminal GST fusion; GST (N); purchased Upstate Biotechnology Inc; host or cells: E. coli
T1 sequence (Q16539 whole entry, the tested form may be a part): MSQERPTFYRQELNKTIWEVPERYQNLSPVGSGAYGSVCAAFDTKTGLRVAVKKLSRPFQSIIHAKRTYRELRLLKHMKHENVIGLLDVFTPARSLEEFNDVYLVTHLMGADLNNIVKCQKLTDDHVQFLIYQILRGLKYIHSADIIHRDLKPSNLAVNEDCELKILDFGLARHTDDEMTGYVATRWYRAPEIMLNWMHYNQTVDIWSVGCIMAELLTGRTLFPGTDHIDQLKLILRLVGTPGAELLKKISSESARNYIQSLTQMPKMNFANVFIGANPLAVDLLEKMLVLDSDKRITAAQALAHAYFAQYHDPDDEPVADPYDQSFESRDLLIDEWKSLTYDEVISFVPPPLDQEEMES
Procedure, shortened: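 GST-tagged full-length human p38 MAP kinase with GST-ATF2 (aa 19–96; 1.25 μM) and 40 μM ATP in HEPES pH 7.5 buffer, without (Method I) or with (Method II) 1% human serum albumin. Compound pre-incubated 15 min at room temperature; reaction 30 min at 37 °C; ATF2 Thr69 phosphorylation measured by ELISA (A450).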

SMILES	IC50 ([1]; THP-1, THP-1 cells) [nM]	inhibition at 10 µM [2] [%]	IC50 [2] [nM]	IC50 ([1]; THP-1 cells) [nM]
O=C(Nc1ccc(OCCN2CCC3(CC2)OCCO3)c2ccccc12)c1cc(F)cc(N2CCCCC2)c1 [Compound B159, N-{4-[2-(1,4-Dioxa-8-aza-spiro[4.5]dec-8-yl)-ethoxy]-naphthalen-1-yl}-3-fluoro-5-piperidin-1-yl-benzamide]	> 10000	72.5	1090	
Cc1cc(Cl)ccc1-c1cccc(C(=O)Nc2ccc(OCCN3CCOCC3)c3ccccc23)c1 [Compound B293]	> 10000		10300	
O=C(Nc1ccc(OCCN2CCOCC2)c2ccccc12)c1cccc(N2CCC3CCCCC3C2)n1 (centres unmarked) [Compound B71]	> 10000		> 10000	
Cc1ccc(C(=O)Nc2ccc(OCCN3CCOCC3)c3ccccc23)cc1Br [Compound B37]	> 10000		> 100000	
CN(C)c1ccccc1C(=O)Nc1ccc(OCCN2CCOCC2)c2ccccc12 [Compound B35]	> 10000		> 100000	
O=C(Nc1ccc(CCCN2CCOCC2)c2ccccc12)c1cc(F)cc(N2CCOCC2)c1 [Compound B240, 3-Fluoro-5-morpholin-4-yl-N-[4-(3-morpholin-4-yl-propyl)-naphthalen-1-yl]-benzamide]	1010		1010	
CN1CCN(c2cccc(C(=O)Nc3ccc(OCCN4CCOCC4)c4ccccc34)c2)CC1 [Compound B59]	> 10000		> 10000	
C[C@@H]1CN(CCOc2ccc(NC(=O)c3ccc(CN4CCOCC4)cc3)c3ccccc23)C[C@H](C)O1 [Compound B5]	> 10000		> 10000	
CC1CCCN(c2cc(C(=O)Nc3ccc(OCCN4CCOCC4)c4ccccc34)ccn2)C1 (centres unmarked) [Compound B126, 3-Methyl-3,4,5,6-tetrahydro-2 H-[1,2′]bipyridinyl-4′-carboxylic acid [4-(2-morpholin-4-yl-ethoxy)-naphthalen-1-yl]-amide]	934	85	451	
CCOC(=O)C1CCN(CCOc2ccc(NC(=O)c3cc(F)cc(N4CCCCC4)c3)c3ccccc23)CC1 [Compound B160, 1-{2-[4-(3-Fluoro-5-piperidin-1-yl-benzoylamino)-naphthalen-1-yloxy]-ethyl}-piperidine-4-carboxylic acid ethyl ester]	> 10000	58.5	1820	
O=C(Nc1ccc(Oc2ccnc(N3CCC(CO)CC3)n2)c2ccccc12)c1cc(F)cc(N2CCCCC2)c1 [Compound B415, 3-Fluoro-N-[4-({2-[4-(hydroxymethyl)piperidin-1-yl]pyrimidin-4-yl}oxy)-1-naphthyl]-5-piperidin-1-ylbenzamide]	162		6.1	
O=C(Nc1ccc(OCCN2CCOCC2)c2ccccc12)c1cccc(-c2ccc(Cl)c(Cl)c2)c1 [Compound B283]	> 10000		> 10000	
CCCC/C=C/c1cccc(C(=O)Nc2ccc(OCCN3CCOCC3)c3ccccc23)c1 [Compound B99]	5570	45	> 10000	
Cc1cc(F)ccc1-c1cccc(C(=O)Nc2ccc(OCCN3CCOCC3)c3ccccc23)c1 [Compound B245]	1140		631	
Cc1cc(-c2cccc(C(=O)Nc3ccc(OCCN4CCOCC4)c4ccccc34)c2)ccc1Cl [Compound B300]	9060		9080	
CC(C)(C)OC(=O)Nc1cccc(C(=O)Nc2ccc(OCCN3CCOCC3)c3ccccc23)c1 [Compound B63]	> 10000		> 10000	
O=C(Nc1ccc(OCCN2CCOCC2)c2ccccc12)c1ccnc(N2CCCC2)c1 [Compound B45, N-[4-(2-Morpholin-4-yl-ethoxy)-naphthalen-1-yl]-2-pyrrolidin-1-yl-isonicotinamide]	1190		2120	

SMILES	IC50 ([1]; THP-1, THP-1 cells) [nM]	inhibition at 10 µM [2] [%]	IC50 [2] [nM]	IC50 ([1]; THP-1 cells) [nM]
COCC(C)Nc1nccc(Oc2ccc(NC(=O)c3cc(F)cc(N4CCOCC4)c3)c3ccccc23)n1 (centres unmarked) [Compound B353]	92.6		3.9	
O=C(Nc1ccc(Oc2ccnc(NC3CCCC3)n2)c2ccccc12)c1cc(F)cc(N2CCOCC2)c1 [Compound B250, N-(4-{[2-(Cyclopentylamino)pyrimidin-4-yl]oxy}-1-naphthyl)-3-fluoro-5-morpholin-4-ylbenzamide]	42		30.5	
O=C(Nc1ccc(OCCN2CCC(O)CC2)c2ccccc12)c1cc(F)cc(N2CCCCC2)c1 [Compound B158, 3-Fluoro-N-{4-[2-(4-hydroxypiperidin-1-yl)-ethoxy]-naphthalen-1-yl}-5-piperidin-1-yl-benzamide]	> 10000	72	2670	
CN(CCO)c1nccc(Oc2ccc(NC(=O)c3cc(F)cc(N4CCCCC4)c3)c3ccccc23)n1 [Compound B373]	674		20.9	
O=C(Nc1ccc(OCCN2CCOCC2)c2ccccc12)c1cn(Cc2ccccc2)c2ccccc12 [Compound B49]			> 10000	> 10000
CC1=NCCN1c1nccc(Oc2ccc(NC(=O)c3cc(F)cc(N4CCCCC4)c3)c3ccccc23)n1 [Compound B417, 3-Fluoro-N-(4-{[2-(2-methyl-4,5-dihydro-1 H-imidazol-1-yl)pyrimidin-4-yl]oxy}-1-naphthyl)-5-piperidin-1-ylbenzamide]	336		12.7	
CC1CN(c2cc(F)cc(C(=O)Nc3ccc(OCCN4CCOCC4)c4ccccc34)c2)CC(C)O1 (centres unmarked) [Compound B211]	> 10000		> 10000	
CNc1nccc(Oc2ccc(NC(=O)c3cc(F)cc(N4CCOCC4)c3)c3ccccc23)n1 [Compound B251, 3-Fluoro-N-(4-{[2-(methylamino)pyrimidin-4-yl]oxy}-1-naphthyl)-5-morpholin-4-ylbenzamide]	764		134	
CC1CCN(c2cc(F)cc(C(=O)Nc3ccc(Oc4ccnc(N5CCOCC5)n4)c4ccccc34)c2)CC1 [Compound B265, 3-Fluoro-5-(4-methylpiperidin-1-yl)-N-{4-[(2-morpholin-4-ylpyrimidin-4-yl)oxy]-1-naphthyl}benzamide]	765		5060	
CC(=O)N1CCN(c2ccc(NC(=O)c3cc(F)cc(N4CCC(C)CC4)c3)c3ccccc23)CC1 [Compound B196]	> 10000		3190	
O=C(Nc1ccc(OCCN2CCOCC2)c2ccccc12)c1cccc(-c2cccc(F)c2F)c1 [Compound B288]	10100		2720	
Cc1cc(C)c(-c2cccc(C(=O)Nc3ccc(OCCN4CCOCC4)c4ccccc34)c2)cc1C [Compound B302]	> 10000		> 10000	
CC1CCN(c2cc(F)cc(C(=O)Nc3ccc(OCCN4CCNC(=O)C4)c4ccccc34)c2)CC1 [Compound B197, 3-Fluoro-5-(4-methyl-piperidin-1-yl)-N-{4-[2-(3-oxo-piperazin-1-yl)-ethoxy]-naphthalen-1-yl}-benzamide]	6630		1420	
CCOC(=O)N1CCN(CCOc2ccc(NC(=O)c3ccc(CN4CCOCC4)cc3)c3ccccc23)CC1 [Compound B3]	> 10000		> 10000	
O=C(Nc1ccc(OCCN2CCOCC2)c2ccccc12)c1cccc(-c2cccc(Cl)c2Cl)c1 [Compound B282]	4770		3670	
O=C(Nc1ccc(Oc2ccnc(NC[C@@H]3CCCO3)n2)c2ccccc12)c1cc(F)cc(N2CCOCC2)c1 [Compound B358]	9.5		3.2	

Source: US7829560B2, “1,4-disubstituted naphthalenes as inhibitors of P38 MAP kinase” (Arqule, Inc., priority 2004, dated 2010)
